Assay results reported in ChEMBL document CHEMBL3992513, “Synthesis, anti-inflammatory, cyclooxygenases inhibitions assays and histopathological study of poly-substituted 1,3,5-triazines: Confirmation of regiospecific pyrazole cyclization by HMBC” (Eur J Med Chem, 2017).

Key:
[1] = molecular target: T1, Prostaglandin G/H synthase 1 (Ovis aries, UniProt P05979); test: Inhibition of ovine COX1 using arachidonic acid as substrate preincubated for 5 mins followed by substrate addition measured after 2 mins by enzyme immunoassay
T1 sequence (P05979 whole entry): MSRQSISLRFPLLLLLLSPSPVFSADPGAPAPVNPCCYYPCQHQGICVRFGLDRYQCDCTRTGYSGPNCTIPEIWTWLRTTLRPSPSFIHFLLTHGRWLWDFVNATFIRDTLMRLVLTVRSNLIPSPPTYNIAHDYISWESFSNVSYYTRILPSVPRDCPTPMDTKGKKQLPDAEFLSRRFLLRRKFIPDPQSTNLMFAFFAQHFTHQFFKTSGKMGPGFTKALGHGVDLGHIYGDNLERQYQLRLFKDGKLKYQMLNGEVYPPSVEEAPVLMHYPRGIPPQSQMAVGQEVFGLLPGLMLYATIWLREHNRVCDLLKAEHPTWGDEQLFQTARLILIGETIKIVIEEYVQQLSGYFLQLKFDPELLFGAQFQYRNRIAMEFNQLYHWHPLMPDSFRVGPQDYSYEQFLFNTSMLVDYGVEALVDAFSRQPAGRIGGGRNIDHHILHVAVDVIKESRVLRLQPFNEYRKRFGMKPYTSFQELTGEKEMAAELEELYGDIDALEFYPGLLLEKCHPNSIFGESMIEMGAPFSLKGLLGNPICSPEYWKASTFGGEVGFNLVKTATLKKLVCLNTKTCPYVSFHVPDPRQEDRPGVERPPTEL

[2] = tested on: Rattus norvegicus; test: Anti-inflammatory activity in Wistar albino rat assessed as inhibition of carragenan-induced paw edema thickness at 50 mg/kg, po measured after 1 hr relative to control; assay type: functional
[3] = tested on: Rattus norvegicus; test: Anti-inflammatory activity in Wistar albino rat assessed as inhibition of carragenan-induced paw edema thickness at 50 mg/kg, po measured after 3 hrs relative to control; assay type: functional
[4] = tested on: Rattus norvegicus; test: Anti-inflammatory activity in Wistar albino rat assessed as inhibition of carragenan-induced paw edema thickness at 50 mg/kg, po measured after 5 hrs relative to control; assay type: functional
[5] = tested on: Rattus norvegicus; test: Ulcerogenicity in Wistar albino rat model of carragenan-induced paw edema assessed as degenrative changes with necrotic changes in gastric mucosa at 50 mg/kg, po by hematoxylin and eosin staining based histopathological analysis; assay type: toxicity, organism-based; details: in vivo
[6] = tested on: Rattus norvegicus; test: Ulcerogenicity in Wistar albino rat model of carragenan-induced paw edema assessed as leucocytic infiltration in sub mucosa at 50 mg/kg, po by hematoxylin and eosin staining based histopathological analysis; assay type: toxicity, organism-based; details: in vivo
[7] = tested on: Rattus norvegicus; test: Ulcerogenicity in Wistar albino rat model of carragenan-induced paw edema assessed as blood vessel dilation in sub-mucosa at 50 mg/kg, po by hematoxylin and eosin staining based histopathological analysis; assay type: toxicity, organism-based; details: in vivo
[8] = tested on: Rattus norvegicus; test: Ulcerogenicity in Wistar albino rat model of carragenan-induced paw edema assessed as corrugations of muscular layer in stomach at 50 mg/kg, po by hematoxylin and eosin staining based histopathological analysis; assay type: toxicity, organism-based; details: in vivo
[9] = tested on: Rattus norvegicus; test: Ulcerogenicity in Wistar albino rat model of carragenan-induced paw edema assessed as hyalinosis and coagulative necrosis of muscular layer in stomach at 50 mg/kg, po by hematoxylin and eosin staining based histopathological analysis; assay type: toxicity, organism-based; details: in vivo
[10] = tested on: Rattus norvegicus; test: Ulcerogenicity in Wistar albino rat model of carragenan-induced paw edema assessed as blood vessel congestion with edema in sub-mucosa at 50 mg/kg, po by hematoxylin and eosin staining based histopathological analysis; assay type: toxicity, organism-based; details: in vivo

Row | SMILES | IC50 [1] | inhibition in vivo at 50 mg/kg [2] | inhibition in vivo at 50 mg/kg [3] | inhibition in vivo at 50 mg/kg [4] | Activity [5] | Activity [6] | Activity [7] | Activity [8] | Activity [9] | Activity [10]
1 | COc1cc(/C=C/C(=O)c2ccc(Nc3nc(N4CCCCC4)nc(N4CCCCC4)n3)cc2)cc(OC)c1OC | 7.25 µM |  |  |  |  |  |  |  |  | 
2 | Cc1ccc(-c2cc(C(F)(F)F)nn2-c2ccc(S(N)(=O)=O)cc2)cc1 [CELECOXIB] |  | 77% | 72% | 20% | Toxic | Toxic | Toxic | Toxic |  | 
3 | COc1ccc2c(c1)c(CC(=O)O)c(C)n2C(=O)c1ccc(Cl)cc1 [INDOMETHACIN] |  |  |  |  | Toxic | Toxic | Toxic |  | Toxic | 
4 | COc1cc(/C=C/C(=O)c2ccc(Nc3nc(N4CCOCC4)nc(N4CCOCC4)n3)cc2)cc(OC)c1OC | 4.65 µM | 58% | 18% | 15% | Non-Toxic | Non-Toxic |  |  | Non-Toxic | Toxic
5 | COc1cc(C2CC(c3ccc(Nc4nc(N5CCCCC5)nc(N5CCCCC5)n4)cc3)=NN2C(C)=O)cc(OC)c1OC (stereo unspecified) | 3.52 µM | 45% | 34% | 2% | Toxic | Toxic |  |  |  | 
6 | COc1cc(C2CC(c3ccc(Nc4nc(N5CCOCC5)nc(N5CCOCC5)n4)cc3)=NN2C(C)=O)cc(OC)c1OC (stereo unspecified) | 8.61 µM |  |  |  |  |  |  |  |  | 
7 | CS(=O)(=O)c1ccc(-n2nccc2-c2ccc(Nc3nc(N4CCOCC4)nc(N4CCOCC4)n3)cc2)cc1 | 3.87 µM |  |  |  | Non-Toxic |  |  |  | Non-Toxic | 
8 | CS(=O)(=O)c1ccc(-n2nccc2-c2ccc(Nc3nc(N4CCCCC4)nc(N4CCCCC4)n3)cc2)cc1 | 7.98 µM | 36% | 38% | 20% |  |  |  |  |  | 
9 | c1ccc(-n2nccc2-c2ccc(Nc3nc(N4CCCCC4)nc(N4CCCCC4)n3)cc2)cc1 | 6.42 µM | 32% | 18% | 2% |  |  |  |  |  | 
10 | c1cc(-c2ccc(Nc3nc(N4CCCCC4)nc(N4CCCCC4)n3)cc2)on1 | 7.23 µM | 51% | 26% | 25% |  |  |  |  |  | 
11 | c1cc(-c2ccc(Nc3nc(N4CCOCC4)nc(N4CCOCC4)n3)cc2)on1 | 4.33 µM |  |  |  |  |  |  |  |  | 
12 | c1ccc(-n2nccc2-c2ccc(Nc3nc(N4CCOCC4)nc(N4CCOCC4)n3)cc2)cc1 | 4.99 µM |  |  |  | Toxic | Toxic |  |  | Toxic | Toxic

The remaining compounds from weak to strong by IC50 [1], led by results:

Row | IC50 [1] | SMILES | inhibition in vivo at 50 mg/kg [2] | inhibition in vivo at 50 mg/kg [3] | inhibition in vivo at 50 mg/kg [4] | Activity [5] | Activity [6] | Activity [7] | Activity [8] | Activity [9] | Activity [10]
13 | 8.23 µM | CC(=O)c1ccc(Nc2nc(N3CCCCC3)nc(N3CCCCC3)n2)cc1 |  |  |  |  |  |  |  |  | 
14 | 6.85 µM | CN(C)/C=C/C(=O)c1ccc(Nc2nc(N3CCCCC3)nc(N3CCCCC3)n2)cc1 | 19% | 14% | 20% |  |  |  |  |  | 
15 | 5.93 µM | CC(=O)c1ccc(Nc2nc(N3CCOCC3)nc(N3CCOCC3)n2)cc1 | 21% | 8% | 0% |  |  |  |  |  | 
16 | 5.26 µM | c1cc(-c2ccc(Nc3nc(N4CCOCC4)nc(N4CCOCC4)n3)cc2)[nH]n1 |  |  |  |  |  |  |  |  | 
17 | 4.95 µM | c1cc(-c2ccc(Nc3nc(N4CCCCC4)nc(N4CCCCC4)n3)cc2)[nH]n1 | 58% | 24% | 5% |  |  |  |  |  | 
18 | 3.98 µM | CN(C)/C=C/C(=O)c1ccc(Nc2nc(N3CCOCC3)nc(N3CCOCC3)n2)cc1 |  |  |  | Toxic | Toxic |  |  | Toxic | 
